According to the OligoGym collection:
Oligonucleotides are given in HELM: sugar(base)linkage, 5' to 3'; d 2'-deoxyribose, r ribose, m 2'-O-methylribose, p phosphate. ss, as = sense and antisense strand
Also: test concentration or dose not given here.

What follows are substances tested against UBE2D3 (assay: reporter assay of Huesken 2005). Conditions: siRNA.
Substance “RNA1{r(U)p.r(U)p.r(U)p.r(A)p.r(C)p.r(A)p.r(A)p.r(C)p.r(A)p.r(A)p.r(G)p.r(A)p.r(A)p.r(U)p.r(U)p.r(U)p.r(A)p.r(U)p.r(C)p.d(T)p.d(T)}|RNA2{r(G)p.r(A)p.r(U)p.r(A)p.r(A)p.r(A)p.r(U)p.r(U)p.r(C)p.r(U)p.r(U)p.r(G)p.r(U)p.r(U)p.r(G)p.r(U)p.r(A)p.r(A)p.r(A)p.d(T)p.d(G)}$$$RNA1{StrandType:ss}|RNA2{StrandType:as}$” has a normalised inhibition (eCFP-eYFP dual reporter) of 48.8%. Substance “RNA1{r(G)p.r(G)p.r(U)p.r(C)p.r(G)p.r(C)p.r(C)p.r(U)p.r(G)p.r(C)p.r(U)p.r(U)p.r(U)p.r(A)p.r(A)p.r(C)p.r(A)p.r(A)p.r(U)p.d(T)p.d(T)}|RNA2{r(A)p.r(U)p.r(U)p.r(G)p.r(U)p.r(U)p.r(A)p.r(A)p.r(A)p.r(G)p.r(C)p.r(A)p.r(G)p.r(G)p.r(C)p.r(G)p.r(A)p.r(C)p.r(C)p.d(A)p.d(C)}$$$RNA1{StrandType:ss}|RNA2{StrandType:as}$” has a normalised inhibition (eCFP-eYFP dual reporter) of 84.5%. “RNA1{r(C)p.r(U)p.r(G)p.r(C)p.r(U)p.r(U)p.r(U)p.r(A)p.r(A)p.r(C)p.r(A)p.r(A)p.r(U)p.r(U)p.r(U)p.r(C)p.r(U)p.r(A)p.r(A)p.d(T)p.d(T)}|RNA2{r(U)p.r(U)p.r(A)p.r(G)p.r(A)p.r(A)p.r(A)p.r(U)p.r(U)p.r(G)p.r(U)p.r(U)p.r(A)p.r(A)p.r(A)p.r(G)p.r(C)p.r(A)p.r(G)p.d(G)p.d(C)}$$$RNA1{StrandType:ss}|RNA2{StrandType:as}$” showed a normalised inhibition (eCFP-eYFP dual reporter) of 89.7%. For “RNA1{r(U)p.r(U)p.r(C)p.r(A)p.r(U)p.r(U)p.r(U)p.r(U)p.r(C)p.r(C)p.r(U)p.r(A)p.r(C)p.r(A)p.r(G)p.r(A)p.r(C)p.r(U)p.r(A)p.d(T)p.d(T)}|RNA2{r(U)p.r(A)p.r(G)p.r(U)p.r(C)p.r(U)p.r(G)p.r(U)p.r(A)p.r(G)p.r(G)p.r(A)p.r(A)p.r(A)p.r(A)p.r(U)p.r(G)p.r(A)p.r(A)p.d(T)p.d(T)}$$$RNA1{StrandType:ss}|RNA2{StrandType:as}$”, the normalised inhibition (eCFP-eYFP dual reporter) was 85%. Work on “RNA1{r(A)p.r(G)p.r(C)p.r(A)p.r(C)p.r(A)p.r(A)p.r(U)p.r(G)p.r(U)p.r(U)p.r(C)p.r(U)p.r(G)p.r(C)p.r(A)p.r(G)p.r(G)p.r(U)p.d(T)p.d(T)}|RNA2{r(A)p.r(C)p.r(C)p.r(U)p.r(G)p.r(C)p.r(A)p.r(G)p.r(A)p.r(A)p.r(C)p.r(A)p.r(U)p.r(U)p.r(G)p.r(U)p.r(G)p.r(C)p.r(U)p.d(G)p.d(G)}$$$RNA1{StrandType:ss}|RNA2{StrandType:as}$” yielded a normalised inhibition (eCFP-eYFP dual reporter) of 102%. In the case of “RNA1{r(A)p.r(U)p.r(C)p.r(A)p.r(U)p.r(C)p.r(C)p.r(A)p.r(A)p.r(A)p.r(U)p.r(A)p.r(U)p.r(U)p.r(A)p.r(A)p.r(C)p.r(A)p.r(G)p.d(T)p.d(T)}|RNA2{r(C)p.r(U)p.r(G)p.r(U)p.r(U)p.r(A)p.r(A)p.r(U)p.r(A)p.r(U)p.r(U)p.r(U)p.r(G)p.r(G)p.r(A)p.r(U)p.r(G)p.r(A)p.r(U)p.d(A)p.d(A)}$$$RNA1{StrandType:ss}|RNA2{StrandType:as}$”, the normalised inhibition (eCFP-eYFP dual reporter) was 32%. With “RNA1{r(A)p.r(U)p.r(U)p.r(U)p.r(A)p.r(U)p.r(C)p.r(A)p.r(U)p.r(C)p.r(C)p.r(A)p.r(A)p.r(A)p.r(U)p.r(A)p.r(U)p.r(U)p.r(A)p.d(T)p.d(T)}|RNA2{r(U)p.r(A)p.r(A)p.r(U)p.r(A)p.r(U)p.r(U)p.r(U)p.r(G)p.r(G)p.r(A)p.r(U)p.r(G)p.r(A)p.r(U)p.r(A)p.r(A)p.r(A)p.r(U)p.d(T)p.d(C)}$$$RNA1{StrandType:ss}|RNA2{StrandType:as}$” the normalised inhibition (eCFP-eYFP dual reporter) was 76.2%. Work on “RNA1{r(U)p.r(G)p.r(G)p.r(C)p.r(A)p.r(G)p.r(C)p.r(A)p.r(U)p.r(U)p.r(U)p.r(G)p.r(U)p.r(C)p.r(U)p.r(C)p.r(G)p.r(A)p.r(U)p.d(T)p.d(T)}|RNA2{r(A)p.r(U)p.r(C)p.r(G)p.r(A)p.r(G)p.r(A)p.r(C)p.r(A)p.r(A)p.r(A)p.r(U)p.r(G)p.r(C)p.r(U)p.r(G)p.r(C)p.r(C)p.r(A)p.d(T)p.d(T)}$$$RNA1{StrandType:ss}|RNA2{StrandType:as}$” yielded a normalised inhibition (eCFP-eYFP dual reporter) of 99.6%. In the case of “RNA1{r(C)p.r(A)p.r(A)p.r(G)p.r(G)p.r(C)p.r(G)p.r(G)p.r(U)p.r(G)p.r(U)p.r(A)p.r(U)p.r(U)p.r(C)p.r(U)p.r(U)p.r(U)p.r(U)p.d(T)p.d(T)}|RNA2{r(A)p.r(A)p.r(A)p.r(A)p.r(G)p.r(A)p.r(A)p.r(U)p.r(A)p.r(C)p.r(A)p.r(C)p.r(C)p.r(G)p.r(C)p.r(C)p.r(U)p.r(U)p.r(G)p.d(A)p.d(T)}$$$RNA1{StrandType:ss}|RNA2{StrandType:as}$”, the normalised inhibition (eCFP-eYFP dual reporter) was 104%. In the case of “RNA1{r(U)p.r(U)p.r(U)p.r(C)p.r(U)p.r(A)p.r(A)p.r(A)p.r(G)p.r(U)p.r(U)p.r(C)p.r(U)p.r(U)p.r(U)p.r(U)p.r(A)p.r(U)p.r(C)p.d(T)p.d(T)}|RNA2{r(G)p.r(A)p.r(U)p.r(A)p.r(A)p.r(A)p.r(A)p.r(G)p.r(A)p.r(A)p.r(C)p.r(U)p.r(U)p.r(U)p.r(A)p.r(G)p.r(A)p.r(A)p.r(A)p.d(T)p.d(T)}$$$RNA1{StrandType:ss}|RNA2{StrandType:as}$”, the normalised inhibition (eCFP-eYFP dual reporter) was 30.6%. With “RNA1{r(A)p.r(U)p.r(U)p.r(A)p.r(A)p.r(C)p.r(A)p.r(G)p.r(U)p.r(A)p.r(A)p.r(U)p.r(G)p.r(G)p.r(C)p.r(A)p.r(G)p.r(C)p.r(A)p.d(T)p.d(T)}|RNA2{r(U)p.r(G)p.r(C)p.r(U)p.r(G)p.r(C)p.r(C)p.r(A)p.r(U)p.r(U)p.r(A)p.r(C)p.r(U)p.r(G)p.r(U)p.r(U)p.r(A)p.r(A)p.r(U)p.d(A)p.d(T)}$$$RNA1{StrandType:ss}|RNA2{StrandType:as}$” the normalised inhibition (eCFP-eYFP dual reporter) was 57.6%. For “RNA1{r(U)p.r(A)p.r(U)p.r(G)p.r(U)p.r(U)p.r(U)p.r(C)p.r(A)p.r(U)p.r(U)p.r(G)p.r(G)p.r(C)p.r(A)p.r(A)p.r(G)p.r(C)p.r(C)p.d(T)p.d(T)}|RNA2{r(G)p.r(G)p.r(C)p.r(U)p.r(U)p.r(G)p.r(C)p.r(C)p.r(A)p.r(A)p.r(U)p.r(G)p.r(A)p.r(A)p.r(A)p.r(C)p.r(A)p.r(U)p.r(A)p.d(T)p.d(C)}$$$RNA1{StrandType:ss}|RNA2{StrandType:as}$”, the normalised inhibition (eCFP-eYFP dual reporter) was 44.7%. Substance “RNA1{r(A)p.r(U)p.r(U)p.r(A)p.r(U)p.r(G)p.r(G)p.r(G)p.r(A)p.r(C)p.r(C)p.r(U)p.r(A)p.r(A)p.r(U)p.r(G)p.r(A)p.r(C)p.r(A)p.d(T)p.d(T)}|RNA2{r(U)p.r(G)p.r(U)p.r(C)p.r(A)p.r(U)p.r(U)p.r(A)p.r(G)p.r(G)p.r(U)p.r(C)p.r(C)p.r(C)p.r(A)p.r(U)p.r(A)p.r(A)p.r(U)p.d(T)p.d(G)}$$$RNA1{StrandType:ss}|RNA2{StrandType:as}$” has a normalised inhibition (eCFP-eYFP dual reporter) of 64.1%. Substance “RNA1{r(U)p.r(G)p.r(C)p.r(U)p.r(U)p.r(U)p.r(A)p.r(A)p.r(C)p.r(A)p.r(A)p.r(U)p.r(U)p.r(U)p.r(C)p.r(U)p.r(A)p.r(A)p.r(A)p.d(T)p.d(T)}|RNA2{r(U)p.r(U)p.r(U)p.r(A)p.r(G)p.r(A)p.r(A)p.r(A)p.r(U)p.r(U)p.r(G)p.r(U)p.r(U)p.r(A)p.r(A)p.r(A)p.r(G)p.r(C)p.r(A)p.d(G)p.d(G)}$$$RNA1{StrandType:ss}|RNA2{StrandType:as}$” has a normalised inhibition (eCFP-eYFP dual reporter) of 92%.
